Data from patent US10329243B2, “Biphenyl derivative and uses thereof” (XI'AN LIBANG PHARMACEUTICAL CO., LTD, priority 2015, dated 2019).

Columns and labels:
Type in all cases: in vivo, SD rats
IL-1β [1] = assay: Determination of IL-1β in brain tissue homogenate, permanent cerebral ischemia model; conditions: permanent cerebral ischemia model rats; 40 mg/kg intravenously; 10% brain tissue homogenate, 24 h after the embolism
Procedure: (§1) Rats were intraperitoneally injected with 10% chloral hydrate 350 mg/kg after anesthesia and opened up at the center of the neck in accordance with the Zea Longa modified method. The right common carotid artery was separated, and the right external carotid artery branches was ligated. A small opening was made at the distal end of the external carotid artery, and a previously prepared thread was inserted through the common carotid artery and the external carotid artery bifurcation into the internal carotid artery, till the anterior end of the middle cerebral artery, with an immersed depth of 18 to 19 mm. The thread was then secured, and the wound was sutured layer by layer. After the operation, the rats were placed in a clean incubator to wake up. […] The sham operation group, the permanent cerebral ischemia model group, and the Example groups were prepared strictly according to the requirements of the cerebral ischemic reperfusion model, while in the sham operation group the thread was put only into the external carotid artery. The animals were allowed to eat and drink freely after waking up. The sham operation group, the permanent cerebral ischemia model group, and the Example groups were administered intravenously the aqueous solution of the biphenyl derivatives in PEG400 at 40 mg/kg (40 mg/kg means that 40 mg of the test compound per kg of the body weight of rats) 30 min before insertion of thread and 12 h after embolism, respectively. The sham operation group and the permanent cerebral ischemia model group were injected with the same amount of blank PEG400 aqueous solution at the same time point.
(§2) 24 hours after the embolism, 8 rats in each group were sacrificed by decapitation, the brain was removed, rinsed with PBS (pH 7.4) at −20°i for 20 min, evenly sliced (with a thickness of 2 mm), stained in a 2% TTC solution at 37°% in the dark for 30 min, fixed in 10% formalin for 24 h, and photographs were taken to analyze the infarct volume. A mixture of femoral arterial and venous blood was drawn from another 8 rats in each group under anesthesia, placed in a low temperature centrifuge at 4° C., centrifuged at 3500 r/min for 20 min, and the supernatant was stored in a refrigerator at −20° C. ready for SOD and MDA detection. After the blood was drawn, a perfusion needle was insert through the apex to the ascending aorta, and saline at 4° C. was rapid infused until the effluent became clear, followed by 4% paraformaldehyde phosphate buffer perfusion for fixation; the brain was removed by craniotomy, and brain tissues 2 mm in front of and behind the optic chiasma were taken and fixed, dehydrated, rendered transparent, impregnated in wax, and embedded. Brain continuous coronary tissue pathological sections were consecutively cut for later use. The remaining 8 rats in each group were sacrificed, brains were removed, the ischemic brain hemispheres were immediately taken on an ice tray, and 10% brain tissue homogenate was prepared for the detection of IL-1β and TNF-α.
(§3) Brain tissue homogenate was hypothermally centrifuged at 3000 rpm for 15 min, the supernatant was taken, and IL-1β and TNF-α were determined in strict accordance with instructions of the kits.

TNF-α [2] = assay: Determination of TNF-α in brain tissue homogenate, cerebral ischemic reperfusion MCAO model; conditions: ischemic reperfusion MCAO rats; 40 mg/kg intravenously; 10% brain tissue homogenate, 24 h after reperfusion
Procedure: as §1, with “group, the ischemic reperfusion group, and” for “group, the permanent cerebral ischemia model group, and”, “waking up. After 2 h, the thread was pulled out to achieve reperfusion. The sham” for “waking up. The sham”, “min before reperfusion and 12” for “min before insertion of thread and 12”, “h after reperfusion, respectively. The” for “h after embolism, respectively. The”, “and the ischemic reperfusion group were” for “and the permanent cerebral ischemia model group were”
as §2, with “reperfusion,” for “the embolism,”, “−20° i” for “−20°i”
as §3

TNF-α [3] = assay: Determination of TNF-α in brain tissue homogenate, permanent cerebral ischemia model; conditions: permanent cerebral ischemia model rats; 40 mg/kg intravenously; 10% brain tissue homogenate, 24 h after the embolism
Procedure: as §1, §2, §3

IL-1β [4] = assay: Determination of IL-1β in brain tissue homogenate, cerebral ischemic reperfusion MCAO model; conditions: ischemic reperfusion MCAO rats; 40 mg/kg intravenously; 10% brain tissue homogenate, 24 h after reperfusion
Procedure: as §1, with “group, the ischemic reperfusion group, and” for “group, the permanent cerebral ischemia model group, and”, “waking up. After 2 h, the thread was pulled out to achieve reperfusion. The sham” for “waking up. The sham”, “min before reperfusion and 12” for “min before insertion of thread and 12”, “h after reperfusion, respectively. The” for “h after embolism, respectively. The”, “and the ischemic reperfusion group were” for “and the permanent cerebral ischemia model group were”
as §2, with “reperfusion,” for “the embolism,”, “−20° i” for “−20°i”
as §3

SOD [5] = assay: SOD determination, cerebral ischemic reperfusion MCAO model; conditions: ischemic reperfusion MCAO rats; 40 mg/kg intravenously 30 min before and 12 h after reperfusion; serum, 24 h after reperfusion
Procedure: as §1, with “group, the ischemic reperfusion group, and” for “group, the permanent cerebral ischemia model group, and”, “waking up. After 2 h, the thread was pulled out to achieve reperfusion. The sham” for “waking up. The sham”, “min before reperfusion and 12” for “min before insertion of thread and 12”, “h after reperfusion, respectively. The” for “h after embolism, respectively. The”, “and the ischemic reperfusion group were” for “and the permanent cerebral ischemia model group were”
as §2, with “reperfusion,” for “the embolism,”, “−20° i” for “−20°i”
(§4) SOD and MDA were determined strictly in accordance with instructions of the kit.

[6] = test system: rats with cerebral ischemic reperfusion injury; assay: Relative infarct volume (TTC, imageJ), cerebral ischemic reperfusion MCAO model; conditions: ischemic reperfusion MCAO rats; 40 mg/kg intravenously 30 min before and 12 h after reperfusion; 24 h after reperfusion
Procedure: as §1, with “group, the ischemic reperfusion group, and” for “group, the permanent cerebral ischemia model group, and”, “waking up. After 2 h, the thread was pulled out to achieve reperfusion. The sham” for “waking up. The sham”, “min before reperfusion and 12” for “min before insertion of thread and 12”, “h after reperfusion, respectively. The” for “h after embolism, respectively. The”, “and the ischemic reperfusion group were” for “and the permanent cerebral ischemia model group were”
as §2, with “reperfusion,” for “the embolism,”, “−20° i” for “−20°i”
The infarct area in each brain section was analyzed and quantified by the imageJ image software, and the ratio of cerebral infarction volume in the overall brain volume was calculated.

SOD [7] = assay: SOD determination, permanent cerebral ischemia model; conditions: permanent cerebral ischemia model rats; 40 mg/kg intravenously; serum, 24 h after the embolism
Procedure: as §1, §2, §4

Structure (SMILES): CC(=O)OC(C)Oc1c(C(C)C)cc(-c2cc(C(C)C)c(O)c(C(C)C)c2)cc1C(C)C (stereo not shown) [Example 12 group, Ethyl 1-(4′-hydroxy-3,3′,5,5′-tetraisopropylbiphenyl-4-oxo)acetate]
- IL-1β content (IL-1β [1]): 0.75 ± 0.04 ng/mL
- TNF-α content (TNF-α [2]): 4.95 ± 0.67 ng/mL
- TNF-α content (TNF-α [3]): 5.38 ± 0.59 ng/mL
- IL-1β content (IL-1β [4]): 0.74 ± 0.06 ng/mL
- SOD ACTIVITY (U/mL) (SOD [5]): 92.39 ± 5.27 U/mL
- Relative Brain infarction volume (%) [6]: 25.54 ± 3.29 %
- SOD ACTIVITY (U/mL) (SOD [7]): 91.25 ± 3.84 U/mL
